For this series, the system named is endotoxin. Nature of the series: administration of E5564 to humans / endotoxin challenge studies. The series is classed as in vivo. An excerpt: We have discovered that administration of E5564 to humans in a single bolus or by intermittent infusion is effective at preventing the clinical effects of endotoxemia. […] Thus, we have discovered drug administration regimens involving single bolus or intermittent infusion, to prevent or treat endotoxemia and related conditions and disorders (e.g., sepsis) in humans.

Here are results for one molecule from patent US7348316B2, “Use of an anti-endotoxin drug in the prevention and treatment of disease” (Eisai R&D Management Co., Ltd., priority 2003, dated 2008).

For `CCCCCC/C=C\CCCCCCCCC[C@@H](O)N[C@H]1[C@H](OCC2O[C@H](OP(=O)(O)O)[C@H](NC(=O)CC(=O)CCCCCCCCCCC)[C@@H](OCCCCCCCCCC)[C@@H]2O)O[C@H](COC)[C@@H](OP(=O)(O)O)[C@@H]1OCC[C@@H](CCCCCCC)OC` (stereo partly drawn) [Compound E5564, α-D-Glucopyranose, 3-O-decyl-2-deoxy-6-O-[2-deoxy-3-O-[(3R)-3-methoxydecyl)-6-O-methyl-2-[[(11Z)-1-oxo-11-octadecenyl)amino]-4-O-phosphono-β-D-glucopyranosyl]-2-[(1,3-dioxotetradecyl)amino]-,1-(dihydrogen phosphate)], the “activity of the drug after cessation of administration” value (doses higher than the minimum dose found to be effective in endotoxin challenge studies) is given as “prolonged activity”. For the same molecule, the “preventing the clinical effects of endotoxemia” value (humans, single bolus or intermittent infusion) was “effective”. Besides, where the note is “previous studies”, the “activity of the drug upon cessation of administration” value is given as “decreases rapidly” and the “clearance from circulation upon cessation of administration” value is on record as “not cleared from circulation”.
